Source: the Kinase Knowledgebase extract (Sharma et al. 2016)

Key:
[1] = system: EGFR (Human), P00533 [Assessment of Proliferation in EGFR DelE746_A750 Mutant Expressing HCC827 Cells]
[2] = system: EGFR (Human), P00533 [T790M/L858R]; settings: nci-h1975
Sequence of EGFR (Human), P00533 [T790M/L858R] (P00533 whole entry T790M/L858R, looked up): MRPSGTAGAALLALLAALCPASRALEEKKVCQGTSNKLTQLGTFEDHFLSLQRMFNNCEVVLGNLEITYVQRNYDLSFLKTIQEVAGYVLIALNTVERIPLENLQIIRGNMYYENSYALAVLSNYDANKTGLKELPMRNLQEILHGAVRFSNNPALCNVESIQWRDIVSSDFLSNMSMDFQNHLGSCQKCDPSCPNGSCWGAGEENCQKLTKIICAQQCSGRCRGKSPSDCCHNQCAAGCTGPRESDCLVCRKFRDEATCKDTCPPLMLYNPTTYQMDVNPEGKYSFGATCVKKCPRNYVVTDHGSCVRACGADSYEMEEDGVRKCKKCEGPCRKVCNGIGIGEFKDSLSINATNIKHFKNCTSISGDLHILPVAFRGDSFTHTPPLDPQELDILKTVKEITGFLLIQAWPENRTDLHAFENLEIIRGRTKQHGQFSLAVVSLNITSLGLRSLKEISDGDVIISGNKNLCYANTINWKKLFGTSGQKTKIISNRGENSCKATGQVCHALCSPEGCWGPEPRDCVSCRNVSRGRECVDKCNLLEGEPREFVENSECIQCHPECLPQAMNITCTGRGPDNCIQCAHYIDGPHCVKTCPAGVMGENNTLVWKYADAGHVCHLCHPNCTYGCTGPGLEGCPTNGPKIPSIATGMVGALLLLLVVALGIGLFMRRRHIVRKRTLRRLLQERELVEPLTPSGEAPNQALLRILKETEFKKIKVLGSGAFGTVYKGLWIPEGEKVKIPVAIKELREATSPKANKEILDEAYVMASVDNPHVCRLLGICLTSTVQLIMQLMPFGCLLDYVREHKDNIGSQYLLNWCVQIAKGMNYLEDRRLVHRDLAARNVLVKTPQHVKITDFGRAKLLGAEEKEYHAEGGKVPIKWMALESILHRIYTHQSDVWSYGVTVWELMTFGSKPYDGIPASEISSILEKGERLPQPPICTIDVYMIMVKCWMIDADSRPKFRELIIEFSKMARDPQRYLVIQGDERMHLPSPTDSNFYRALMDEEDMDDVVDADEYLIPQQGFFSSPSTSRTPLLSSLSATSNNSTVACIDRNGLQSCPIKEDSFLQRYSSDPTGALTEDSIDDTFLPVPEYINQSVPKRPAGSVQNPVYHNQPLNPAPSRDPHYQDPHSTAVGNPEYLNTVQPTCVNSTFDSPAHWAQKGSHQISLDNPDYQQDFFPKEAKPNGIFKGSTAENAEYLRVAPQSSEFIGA

Sequence of EGFR (Human), P00533 [Assessment of Proliferation in EGFR DelE746_A750 Mutant Expressing HCC827 Cells] (P00533 whole entry, looked up, stated change not applied): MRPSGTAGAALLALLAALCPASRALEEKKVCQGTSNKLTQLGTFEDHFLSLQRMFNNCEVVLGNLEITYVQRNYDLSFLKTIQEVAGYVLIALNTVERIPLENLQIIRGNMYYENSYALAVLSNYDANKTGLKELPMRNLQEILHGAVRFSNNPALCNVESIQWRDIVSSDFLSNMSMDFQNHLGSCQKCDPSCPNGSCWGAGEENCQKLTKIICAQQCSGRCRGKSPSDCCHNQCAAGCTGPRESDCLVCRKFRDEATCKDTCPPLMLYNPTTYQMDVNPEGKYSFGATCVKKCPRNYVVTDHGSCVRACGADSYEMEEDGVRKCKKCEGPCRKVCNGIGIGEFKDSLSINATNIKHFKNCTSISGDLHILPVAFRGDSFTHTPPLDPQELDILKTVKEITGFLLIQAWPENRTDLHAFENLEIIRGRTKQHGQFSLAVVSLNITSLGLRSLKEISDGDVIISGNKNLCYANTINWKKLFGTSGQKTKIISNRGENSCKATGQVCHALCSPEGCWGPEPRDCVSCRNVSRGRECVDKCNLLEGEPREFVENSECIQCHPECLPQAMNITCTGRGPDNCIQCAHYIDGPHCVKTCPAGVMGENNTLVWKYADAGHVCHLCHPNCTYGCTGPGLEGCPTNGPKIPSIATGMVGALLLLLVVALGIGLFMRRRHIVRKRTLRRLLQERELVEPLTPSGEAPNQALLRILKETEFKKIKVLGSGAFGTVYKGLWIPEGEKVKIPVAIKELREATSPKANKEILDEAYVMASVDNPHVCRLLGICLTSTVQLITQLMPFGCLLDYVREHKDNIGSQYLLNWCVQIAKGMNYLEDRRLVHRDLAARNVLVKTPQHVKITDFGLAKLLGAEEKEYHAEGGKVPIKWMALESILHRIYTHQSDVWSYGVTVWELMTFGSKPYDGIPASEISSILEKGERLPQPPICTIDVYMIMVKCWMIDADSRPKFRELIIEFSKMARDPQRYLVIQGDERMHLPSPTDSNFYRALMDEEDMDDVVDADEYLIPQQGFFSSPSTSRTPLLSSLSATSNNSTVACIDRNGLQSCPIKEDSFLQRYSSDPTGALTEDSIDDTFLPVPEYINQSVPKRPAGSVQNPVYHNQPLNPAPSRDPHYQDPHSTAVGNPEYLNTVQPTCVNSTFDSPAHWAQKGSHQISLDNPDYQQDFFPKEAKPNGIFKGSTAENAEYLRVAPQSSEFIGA

GI50 [1] [nM] | Compound | GI50 [2] [nM]
50 to 100 | C=CC(=O)Nc1cccc(Oc2nc(Nc3ccc(C4CCN(C)CC4)c(Cl)c3)nc3ccsc23)c1 | 50 to 100
≤ 50 | C=CC(=O)Nc1cccc(Oc2nc(Nc3ccc(CN4CCC4)cc3)nc3ccsc23)c1 | ≤ 50
50 to 100 | C=CC(=O)Nc1cccc(Oc2nc(Nc3ccc(NC4CCN(C(C)C)CC4)nc3)nc3ccsc23)c1 | 50 to 100
≤ 50 | C=CC(=O)Nc1cccc(Oc2nc(Nc3ccc(CN4CCN(CC5CC5)CC4)cc3)nc3ccsc23)c1 | ≤ 50
≤ 50 | C=CC(=O)Nc1cccc(Oc2nc(Nc3ccc(C(=O)NCCN4CCCC4)cc3OC)nc3ccsc23)c1 | 50 to 100
≤ 50 | C=CC(=O)Nc1cccc(Oc2nc(Nc3ccc(C[S+](C)[O-])cc3)nc3ccsc23)c1 (stereo not drawn) | ≤ 50
≤ 50 | C=CC(=O)Nc1cccc(Oc2nc(Nc3ccc(N4CCC(N5CCOCC5)CC4)c(Cl)c3)nc3ccsc23)c1 | ≤ 50
≤ 50 | C=CC(=O)Nc1cccc(Oc2nc(Nc3ccc(N4CCC(N(C)C)CC4)cc3)nc3ccsc23)c1 | ≤ 50
≤ 50 | C=CC(=O)Nc1cccc(Oc2nc(Nc3ccc(NC(=O)CCN4CCCC4)cc3)nc3ccsc23)c1 | ≤ 50
≤ 50 | C=CC(=O)Nc1cccc(Oc2nc(Nc3ccc(N4CCN(CC)CC4)cn3)nc3ccsc23)c1 | ≤ 50
≤ 50 | C=CC(=O)Nc1cccc(Sc2nc(Nc3ccc(C4CCN(C)CC4)c(F)c3)nc3ccsc23)c1 | ≤ 50
≤ 50 | C=CC(=O)Nc1cccc(Oc2nc(Nc3ccc(N4CCN(S(=O)(=O)CC)CC4)cc3)nc3ccsc23)c1 | 50 to 100
50 to 100 | C=CC(=O)Nc1cccc(Oc2nc(Nc3ccc(CN4CCN(C5CCN(C)CC5)CC4)c(Cl)c3)nc3ccsc23)c1 | ≤ 50
≤ 50 | C=CC(=O)Nc1ccc(F)c(Oc2nc(Nc3ccc(N4CCN(C)CC4)cc3)nc3ccsc23)c1 | ≤ 50
≤ 50 | C=CC(=O)Nc1cccc(Oc2nc(Nc3ccc(S(=O)(=O)N4CCN(CC)CC4)cc3)nc3ccsc23)c1 | 50 to 100
≤ 50 | C=CC(=O)Nc1cccc(Nc2nc(Nc3ccc(N4CCN(CC)CC4)cc3)nc3ccsc23)c1 | ≤ 50
≤ 50 | C=CC(=O)Nc1cccc(Oc2nc(Nc3ccc(N4CCN(CCO)CC4)cn3)nc3ccsc23)c1 | 50 to 100
50 to 100 | C=CC(=O)Nc1cccc(Oc2nc(Nc3ccc4c(c3)CCCC(=O)N4C)nc3ccsc23)c1 | 50 to 100
50 to 100 | C=CC(=O)Nc1cccc(Oc2nc(Nc3ccc(NC(=O)N4CCN(C)CC4)cc3)nc3ccsc23)c1 | ≤ 50
≤ 50 | C=CC(=O)Nc1cccc(Oc2nc(Nc3ccc(N4CCN(C)CC4)nc3)nc3ccsc23)c1 | ≤ 50
50 to 100 | C=CC(=O)Nc1cccc(Oc2nc(Nc3ccc(OCCOC)cc3)nc3ccsc23)c1 | ≤ 50
50 to 100 | C=CC(=O)Nc1cccc(Oc2nc(Nc3ccc(N4CCN(S(=O)(=O)CC)CC4)c(F)c3)nc3ccsc23)c1 | ≤ 50
≤ 50 | C=CC(=O)Nc1cccc(Oc2nc(Nc3ccc(N4CCN(C)CC4)cc3)nc3ccsc23)c1 | ≤ 50
100 to 1000 | C=CC(=O)Nc1cccc(Oc2nc(Nc3ccc(N4CCSCC4)cc3)nc3ccsc23)c1 | ≤ 50
≤ 50 | C=CC(=O)Nc1cccc(Nc2nc(Nc3ccc(C4CCCN(C)C4)cc3)nc3ccsc23)c1 (stereo not drawn) | ≤ 50
100 to 1000 | C=CC(=O)Nc1cccc(Oc2nc(Nc3ccc(N4CCCCC4)cc3)nc3ccsc23)c1 | ≤ 50
≤ 50 | C=CC(=O)Nc1cccc(Oc2nc(Nc3ccc(CN4CCN(C)CC4)c(F)c3)nc3ccsc23)c1 | ≤ 50
≤ 50 | C=CC(=O)Nc1ccc(F)c(Nc2nc(Nc3ccc(N4CCN(C)CC4)c(F)c3)nc3ccsc23)c1 | ≤ 50
≤ 50 | C=CC(=O)Nc1cccc(Oc2nc(Nc3ccc(N4CCN(C)CC4)c(C)c3)nc3ccsc23)c1 | ≤ 50
